Data from the supplement of paper PMC8671470.

How the values were obtained:
Conditions in all cases: 72 h
[1] = tested on: Mono-Mac-6; experiment: cell viability (% survival relative to DMSO control); higher = less cytotoxic
Description: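 8x8 drug-combination matrices (0–5000 nM; rosiglitazone and lestaurtinib 0–1000 nM) were run in Mono-Mac-6 cells for 72 h with CellTiter-Glo read-out. Survival is normalised to DMSO and 10 µM bortezomib and clipped at 100%.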

[2] = tested on: myeloid leukemia patient primary cells Pat.4; experiment: area under dose-response curve (viability, 1 nM-10 uM) (fraction (0-1)); higher = more sensitive
Procedure, shortened: (§1)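 Seventy compounds were pre-printed on 384-well plates at five tenfold concentrations between 1 and 10,000 nM, in duplicate. Thawed mononuclear cells purified by Ficoll from AML or CML patients were added at 10,000 cells/well in RPMI 1640 with 10% FBS for 72 h. Viability by CellTiter-Glo was normalised to DMSO and 10 μM proteasome-inhibitor wells. Where stated, area under the curve was taken from log-logistic fits made with the drc and PharmacoGx R packages, each fit having four parameters.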

[3] = tested on: myeloid leukemia patient primary cells Pat.6; experiment: as above
Procedure, shortened: as §1

[4] = tested on: myeloid leukemia patient primary cells Pat.1; experiment: as above
Procedure, shortened: as §1

[5] = tested on: myeloid leukemia patient primary cells Pat.10; experiment: as above
Procedure, shortened: as §1

[6] = tested on: myeloid leukemia patient primary cells Pat.8; experiment: as above
Procedure, shortened: as §1

[7] = tested on: myeloid leukemia patient primary cells Pat.11; experiment: as above
Procedure, shortened: as §1

[8] = tested on: myeloid leukemia patient primary cells Pat.13; experiment: as above
Procedure, shortened: as §1

[9] = tested on: myeloid leukemia patient primary cells Pat.14; experiment: as above
Procedure, shortened: as §1

[10] = tested on: myeloid leukemia patient primary cells Pat.2; experiment: as above
Procedure, shortened: as §1

[11] = tested on: myeloid leukemia patient primary cells Pat.5; experiment: as above
Procedure, shortened: as §1

[12] = tested on: myeloid leukemia patient primary cells Pat.7; experiment: as above
Procedure, shortened: as §1

[13] = tested on: myeloid leukemia patient primary cells Pat.9; experiment: as above
Procedure, shortened: as §1

[14] = tested on: myeloid leukemia patient primary cells Pat.12; experiment: as above
Procedure, shortened: as §1

[15] = tested on: myeloid leukemia patient primary cells Pat.15; experiment: as above
Procedure, shortened: as §1

Oc1ncc(F)c(O)n1 [5-fluorouracil] + C[C@]12O[C@H](C[C@]1(O)CO)n1c3ccccc3c3c4c(c5c6ccccc6n2c5c31)CNC4=O [Lestaurtinib]
cell viability [%], [1]
Conditions	drug1 concentration 5 nM	drug1 concentration 10 nM	drug1 concentration 50 nM	drug1 concentration 100 nM	drug1 concentration 500 nM	drug1 concentration 1000 nM	drug1 concentration 5000 nM
drug2 concentration 1 nM	> 100	> 100	> 100	98	81.7	66.8	43.8
drug2 concentration 5 nM	> 100	62.4	76.5	65.3	69.7	54.7	48
drug2 concentration 10 nM	58.5	59.6	61.9	68	42.9	54.4	50.9
drug2 concentration 50 nM	20.5	20.9	19	21.8	19.7	19.4	21.1
drug2 concentration 100 nM	15.4	11.6	14.2	12.9	8.95	10.9	7.36
drug2 concentration 500 nM	1.8	1.6	3.44	3.7	1.89	2.85	1.13
drug2 concentration 1000 nM	-0.9	1.2	0.62	2.92	5.56	0.83	0

Oc1ncc(F)c(O)n1 [5-fluorouracil]
Conditions	area under dose-response curve
[2]	0.0407
[3]	< 0.0301
[4]	< 0.0301
[5]	0.0668
[6]	< 0.0301
[7]	< 0.0301
[8]	< 0.0301
[9]	< 0.0301
[10]	< 0.0301
[11]	0.188
[12]	0.0322
[13]	0.0717
[14]	< 0.0301
[15]	< 0.0301

Clc1cc(Cl)c(OCC#CI)cc1Cl [Haloprogin]
Conditions	area under dose-response curve
[2]	0.323
[3]	0.238
[4]	0.258
[5]	0.411
[6]	0.175
[7]	0.166
[8]	0.152
[9]	0.427
[10]	0.209
[11]	0.677
[12]	0.356
[13]	0.505
[14]	0.204
[15]	0.183

CCC(CC#N)OC(=O)N[C@@H](C)c1cccc(NC(=O)Nc2ccc(-c3cnco3)c(OC)c2)c1 (stereo in doubt) [AVN-944]
Conditions	area under dose-response curve
[2]	0.162
[5]	0.508
[8]	0.162
[9]	0.167
[10]	< 0.0301
[11]	0.641
[12]	0.545
[13]	0.438
[14]	< 0.0301

NS(=O)(=O)c1ccc(S(=O)(=O)Nc2cccc3c(Cl)c[nH]c23)cc1 [Indisulam]
Conditions	area under dose-response curve
[2]	0.29
[4]	0.128
[5]	< 0.0301
[6]	0.0654
[8]	0.167
[10]	< 0.0301
[11]	0.379
[12]	0.228
[13]	0.227
[14]	< 0.0301
[15]	0.0789

CN(C)C(=O)n1nnnc1Cc1ccc(-c2ccccc2)cc1 + CCOC(=O)N1c2ccc(C(F)(F)F)cc2[C@@H](N(Cc2cc(C(F)(F)F)cc(C(F)(F)F)c2)C(=O)OC)C[C@H]1CC [Torcetrapib]
cell viability [%], [1]
Conditions	drug1 concentration 5 nM	drug1 concentration 10 nM	drug1 concentration 50 nM	drug1 concentration 100 nM	drug1 concentration 500 nM	drug1 concentration 1000 nM	drug1 concentration 5000 nM
drug2 concentration 5 nM	> 100	> 100	> 100	> 100	82.7	86.1	-0.88
drug2 concentration 10 nM	93	86.3	> 100	92	69	90.7	0.43
drug2 concentration 50 nM	> 100	89.7	93.7	95.9	> 100	58.1	1.57
drug2 concentration 100 nM	89	> 100	> 100	> 100	> 100	96.6	0.14
drug2 concentration 500 nM	91.9	> 100	> 100	97	> 100	> 100	0.52
drug2 concentration 1000 nM	99.7	86.5	98.8	> 100	> 100	> 100	2.08
drug2 concentration 5000 nM	90.6	88.3	> 100	93.4	> 100	74.2	0

O=C(Oc1cccc(F)c1OC(=O)c1cccc(O)c1)c1cccc(O)c1 [WZB117]
Conditions	area under dose-response curve
[2]	0.0833
[3]	< 0.0301
[4]	0.0346
[5]	0.176
[6]	0.211
[7]	0.0511
[8]	< 0.0301
[9]	0.107
[10]	0.0336
[11]	0.748
[12]	0.119
[13]	0.223
[14]	0.0633

CN(C)CCNC(=O)c1cccn2c(=O)c3cc4ccccc4cc3nc12 [Bmh-21] + O=C(O)CC[N+](=O)[O-] [3-nitropropionic acid]
cell viability [%], [1]
Conditions	drug1 concentration 5 nM	drug1 concentration 10 nM	drug1 concentration 50 nM	drug1 concentration 100 nM	drug1 concentration 500 nM	drug1 concentration 1000 nM	drug1 concentration 5000 nM
drug2 concentration 5 nM	76.5	> 100	> 100	83.1	56.5	60.2	63.5
drug2 concentration 10 nM	> 100	> 100	> 100	> 100	70.1	83.3	45.7
drug2 concentration 50 nM	> 100	91.1	87	> 100	63.6	67.4	49.9
drug2 concentration 100 nM	98.2	> 100	> 100	79.8	73.9	74.2	> 100
drug2 concentration 500 nM	90.6	> 100	91.9	> 100	> 100	72.2	44.8
drug2 concentration 1000 nM	96.3	97	88.2	90.7	> 100	83.4	83.5
drug2 concentration 5000 nM	> 100	76.8	> 100	> 100	67.5	61	69.3
